Experimental findings from patent US7754202B1, “Methods of controlling cell differentiation and growth using a fusion protein and a drug” (Stanford University, priority 1998, dated 2010) are described below.

Data set [1] deals with Ba/F3 cell lines expressing gp130 signaling domain fused to FKBP12 domains. Kind of data set: Proliferation of Ba/F3 cell lines expressing gp130-FKBP12 fusion proteins. The format is cell-based. From the text:
Expression cassettes encoding fusion proteins containing the signaling domains of the gp130 fused to one, two or three copies of the FKBP12 domain were used to generate stably transfected Ba/F3 cell lines. The complexes that can be assembled in response to FK1012 differ for the various fusion proteins. In the presence of FK1012, fusion proteins containing a single FKBP domain are limited to simple dimerization, whereas proteins containing two or more FKBP domains can form both dimers and oligomers.
In one illustrative experiment, an MSCV-based expression vector was constructed that contained two FKBP12 domains.

A further data set relates to cells. Kind of data set: Immunosuppressive activity or other toxicity to cells. The format is cell-based. The note with it: in experiments to date.
Data set [2] in a line: Solubility in aqueous culture medium. The format is physicochemical. The conditions noted are these: aqueous buffer, serial dilution in culture medium, read-out: highest concentration ensuring complete solubility in the (aqueous) medium. As for the experimental part:
Working concentrations of AP1510 can be obtained by adding compound directly from ethanol stocks, or by diluting serially in culture medium just before use. In the latter case it is recommended that the highest concentration not exceed 5 uM, to ensure complete solubility in the (aqueous) medium. In either case, the final concentration of ethanol in the medium added to mammalian cells should be kept below 0.5% (a 200-fold dilution of a 100% ethanol solution) to prevent detrimental effects of the solvent on the cells.

Data set [3] relates to CD34+ cells from human cord blood transduced with dimerizer-responsive c-mpl signaling domain. Kind of data set: Amplification and erythroid differentiation of MFM-transduced human cord blood CD34+ cells. The data set is classed as cell-based. An excerpt:
CD34+ cells were selected from human cord blood and transduced with a PG13-packaged, MSCV-based retrovirus vector encoding a dimerizer-responsive version of the c-mpl signaling domain (MFM, as described in Example 7, see FIG. 4). […] This finding was reproducible, occurring in each of four separate experiments.

The next data set relates to G418 resistant CFU-C. Kind of data set: FK1012-mediated selection of genetically modified CFU-C in a mixed transduced/non-transduced marrow population. The format is cell-based, murine. The note with it: mixed transduced and non-transduced marrow. An excerpt:
In order to determine whether FK1012 is capable of specifically delivering a mitogenic signal to a minor population of genetically modified CFU-C, marrow cells cocultivated with the MSCVF1mpl producer cell line were mixed with marrow cells cocultivated with the parental packaging cell line. The frequency of G418 CFU-C arising from this mixed population of transduced and non-transduced cells was 35%.
The numbers in Table 4 indicate the fraction of G418 resistant CFU-C.

The test system of data set [4] is clonogenic progenitor cells (CFU-C) of MSCVF1mpl-transduced marrow. Kind of data set: CFU-C assays during suspension culture, with or without G418. The format is cell-based, murine. As for the experimental part:
FIG. 3: CFU-C assays at various time points during suspension culture. Cells were harvested on the days indicated and cultured in semisolid media (Blau, et al. Hum. Gen. Ther. 7:2069, 1996) either in the presence or absence of G418. The concentration of G418, […], was sufficient to prevent the growth of nontransduced cells (data not shown). Dark bars: CFU-C numbers in the absence of G418; Light bars: CFU-C numbers in the presence of G418. (A) No FK1012, no FL; (B) FK1012 alone; (C) FL alone; (D) FK1012 plus FL. Note that FK1012-mediated CFU-C expansion markedly favors the genetically modified cell population.
To determine whether FK1012 is capable of stimulating expansion among clonogenic progenitor cells, progenitors were assayed at various time points of culture as colony forming unit cells (CFU-C). As the MSCVF1mpl vector incorporates a neo gene. (Hawley, et al. Gene Ther. 1:136, 1994), the frequency of genetically modified progenitors is reflected in the frequency of G418 resistant CFU-C. […] By day 28 CFU-C had fallen to undetectable levels (FIG. 3A). In contrast, in the presence of FK1012 an almost 600,000-fold expansion in CFU-C was observed by day 42 (FIG. 3B). […] Of note is that while granulocytes were virtually absent after 42 days in suspension culture in the presence of FK1012 alone, CFU-C progeny derived from these cultures contained large numbers of granulocytes. […]

The test system of a further data set is transduced marrow cells. Kind of data set: Reversibility of FK1012-dependent cell proliferation after 28 days of culture. The format is cell-based, murine. As for the experimental part:
For the experiments whose results are shown in Table 3, after 28 days of culture in FK1012 (100 nM), transduced marrow cells were washed extensively and cultured in suspension in the presence (+) or absence (−) of FK1012. The numbers in Table 3 indicate the number of cells per well×10^−5.

In data set [5] the test system is murine bone marrow cells transduced with MSCVF1mpl. Kind of data set: Suspension culture of MSCVF1mpl-transduced bone marrow cells (cell numbers, cell types). The format is cell-based. On the procedure: FIG. 2: FK1012 stimulates expansion of genetically modified bone marrow cells. Following retroviral transduction, marrow cells were cultured in IMDM containing 10% FCS, 50 U/ml penicillin, […] streptomycin either in the presence or absence of FK1012 (100 nM) or flt-3 ligand (Peprotech-100 ng/ml), in a 37°, 5% CO2, incubator. Cell numbers were determined on the days indicated. Open diamonds: No FK1012, no FL; Closed diamonds: FK1012 alone; Open circles: FL alone; Closed circles: FK1012 plus FL. Note that X axis is on a logarithmic scale.
Forty-eight hours following administration of 150 mg/kg 5-fluorouracil (5-FU), marrow cells were harvested from B6D2F1 mice and cultured for 48 hours in Dulbecco's Modified Eagle's Medium containing 16% fetal calf serum (Intergen), 5% IL3-conditioned medium (Stem Cell Technologies), 100 ng/ml recombinant human IL6 and 50 ng/ml recombinant murine stem cell factor in a 37° C., 5% CO2 incubator. After 48 hours, cells were transferred onto irradiated (1500 cGy) producer cells and cocultivated using the same growth conditions except for the addition of polybrene ([…]). Marrow cells were harvested after 48-hours of cocultivation.
In order to test whether the pharmacological activation of mpl is capable of driving proliferation in genetically modified bone marrow cells, the F1mpl construct was inserted into the retroviral vector MSCV-neoEB (Hawley, et al. Gene Ther. 1:136, 1994). The resulting construct, MSCVF1mpl, was used to generate a stable, high titer, helper virus-free ecotropic producer cell line as described above. Supernatant from the producer cell line was capable of conferring G418 resistance and FK1012 responsiveness in transduced Ba/F3 cell clones (FIG. 1C). Gene transfer into murine bone marrow cells was performed by cocultivation, and transduced marrow cells were tested in suspension culture for the capacity to respond to FK1012. In one set of cultures, FK1012's effects were evaluated in the absence of added growth factors. […] Cell numbers were determined at various time points of culture (FIG. 2). In the absence of drug or added growth factors, all cells died over a period of 7-14 days. […] In contrast, FK1012 dramatically stimulated cell proliferation. The proliferative effect of FK1012 was apparent within 5 days of culture, and has persisted for longer than 49 days without evidence of decline. […] By 42 days of culture FK1012 had induced a greater than 2.5 million-fold expansion in cell numbers.
The types of cells emerging in response to FK1012 differed at varying time points of culture. […] Similar results were obtained in a second experiment.

Where [6] appears, read: gp130 chimeric proteins containing a single FKBP12 domain.
The mark [7] stands for this setting: gp130 fusion proteins with two or three FKBP12 domains.
Where [8] appears, read: FK1012 100 nM, suspension culture.

As to `CCC(C)(C)C(=O)C(=O)N1CCCC[C@H]1C(=O)O[C@H](CCc1ccc(OC)c(OC)c1)c1cccc(OCC(=O)NCCNC(=O)COc2cccc([C@@H](CCc3ccc(OC)c(OC)c3)OC(=O)[C@@H]3CCCCN3C(=O)C(=O)C(C)(C)CC)c2)c1` [AP1510], the results for the proliferative response entry in data set [1] (setting [6]) and in data set [1] (setting [7]) were “minimal proliferative response” and “vigorous proliferative responses”, respectively. In the data set with cells, the “immunosuppressive activity or other toxicity to cells” value was “no immunosuppressive activity or other toxicity to cells”. Moreover, the solubility in [2] was at most 5 µM.
For the molecule `CC[C@H](C(=O)N1CCCC[C@H]1C(=O)O[C@H](CCc1ccc(OC)c(OC)c1)c1cccc(OCC(=O)NCCNC(=O)COc2cccc([C@@H](CCc3ccc(OC)c(OC)c3)OC(=O)[C@@H]3CCCCN3C(=O)[C@@H](CC)c3cc(OC)c(OC)c(OC)c3)c2)c1)c1cc(OC)c(OC)c(OC)c1` [AP1903], the cell proliferation result in [1] (MSCV construct, gp130 with two modified FKBP12 domains, Ba/F3 cells) is “vigorous AP1903-dependent cell proliferation”. In data set [3] (by day 15 of culture), this molecule registered a cells expressing glycophorin of 90%. Besides, the “expansion in total cell numbers” value in data set [3] (in the absence of added cytokines) is on record as 175-350 fold.
Regarding FK1012, the proliferative response entry in data set [1] (setting [6]) is given as “minimal proliferative response”; in [1] (setting [7]) it was “lesser proliferative responses”. For the same molecule, the “fraction of G418 resistant CFU-C” value in the data set with G418 resistant CFU-C (day 0 in culture) came out at 0.35; with G418 resistant CFU-C (day 7 in culture), 0.96. For the same molecule, the “expansion in CFU-C” value in data set [4] (by day 42, FK1012 alone) is recorded as ~600,000 fold. In addition, the “in vivo half life” value in the data set “In vivo half life” is reported as “less than one”. Besides, the “number of cells per well” value with transduced marrow cells (absence (−) of FK1012 after 28 days in FK1012 and washing, day 0) is 5 10^5 cells per well; in the data set with transduced marrow cells (absence (−) of FK1012 after 28 days in FK1012 and washing, day 7), 0.59 10^5 cells per well; in the data set on transduced marrow cells (absence (−) of FK1012 after 28 days in FK1012 and washing, day 14), “.09 cells per well×10^−5”; in the data set with transduced marrow cells (presence (+) of FK1012, day 0 in culture), 5 10^5 cells per well; with transduced marrow cells (presence (+) of FK1012, day 7 in culture) it was 36 10^5 cells per well; with transduced marrow cells (presence (+) of FK1012, day 14 in culture), 1283 10^5 cells per well. Besides, the “reversibility of proliferative effect” value in the data set with transduced marrow cells (cells cultured 28 days in FK1012, then withdrawal or re-addition) is reported as “withdrawal of FK1012 was followed promptly by cell death”. The “persistence of proliferative effect without evidence of decline” value in [5] (setting [8]) was over 49 days. In addition, the “time until proliferative effect apparent” value in data set [5] (setting [8]) was at most 5 days. Further, the “expansion in cell numbers” value in data set [5] (by 42 days of culture, FK1012 100 nM) is reported as “greater than 2.5 million”. The “types of cells emerging” value in [5] (first two weeks of culture in FK1012) was “mature granulocytes and macrophages predominated, while megakaryocytes were rare”; in data set [5] (later time points of culture in FK1012), “megakaryocytes emerged as the dominant phenotypically identifiable cell population”.

B1: FL: flt-3 ligand (Peprotech), growth factor used at 100 ng/ml (protein, UniProt P49771 27-235, looked up)
Fms-related tyrosine kinase 3 …: TQDCSFQHSPISSDFAVKIRELSDYLLQDYPVTVASNLQDEELCGGLWRLVLAQRWMERLKTVAGSKMQGLLERVNTEIHFVTKCAFQPPPSCLRFVQTNISRLLQETSEQLVALKPWITRQNFSRCLELQCQPDSSTLPPPWSPRPLEATAPTAPQPPLLLLLLLPVGLLLLAAAWCLHWQRTRRRTPRPGEQVPPVPSPQDLLLVEH
On to B1, for which the “fraction of G418 resistant CFU-C” value in the data set on G418 resistant CFU-C (day 0 in culture) is 0.35; with G418 resistant CFU-C (day 7 in culture), 0.14. The “expansion in CFU-C” value in [4] (FL alone, transient, without preference for the transduced population) is listed as “seven”. Further, in data set [5] (FL alone), the “cell survival in suspension culture” value is listed as “all cells died by day 28”. Besides, in data set [5] (FL alone (100 ng/ml), between 9 and 12 days of suspension culture), the “expansion in cell numbers” value is “three”.
